Reference: US4751224A, “Treatment of metastasis” (Brown University Research Foundation, priority 1986, dated 1988)
“Also recorded” adds a separate entry of the source. Read-outs that look alike come from different tables or passages of the source.

Assays:
[1] = tested on: B16 amelanotic melanoma cells; conditions: cited from earlier work
[2] = tested on: B16 amelanotic melanoma cells; assay: PGI2 reduction of pulmonary tumor colonization by tail vein injected B16 amelanotic melanoma cells (Honn et al.); format: in vivo, mouse; conditions: PGI2 (Honn) compared with forskolin (applicant)
Excerpt: Since tumor cell-platelet interactions play a role in tumor metastasis, several laboratories have examined anticoagulants and anti-aggregating agents, such as heparin, warfarin (Hagmar and Norrby, Vol. 5 Int. J. Cancer, pp. 72-84, [1970]; Lione and Bosmann, Vol. 2 Cell Biol. Int. Res., pp. 81-86 [1972]; Hoover and Ketcham, Vol. 35 Cancer, pp. 5-14 [1975]); aspirin (Gasic et al., Lancet II, pp. 932-933 [1972]; Wood and Hilgard, Lancet II, pp. 1416-1416 [1972]; Hilgard et al., Vol. 86 Z. Krebsforsch., pp. 243-250 [1976]) and dipyridamole (Hilgard in Interaction of Platelets and Tumor Cells, pp. 143-158, Jameson [ed.] [1982]; Ambrus et al. in Platelets: A Multidisciplinary Approach, pp. 467-48, de Gaetano [ed.] [1982]) to reduce the incidence of tumor metastasis without treating the tumor per se in experimental animal models. However, the results of many of these studies were inconclusive.

platelet aggregation [3] = assay: inhibition of platelet aggregation in vitro; format: cell-based, human; conditions: molar basis, PGI2 compared to forskolin
B16-F10 melanoma cells = assay: pulmonary tumor colonization after tail vein injection of B16-F10 cells; format: in vivo, mouse (C57BL/6)
Method: (§1) Washed B16-F10 tumor cells (2 or 3×10^5) in 100 microliters Hanks balanced salts solution were injected from the tail vein 60 min (Exp. 1) or 30 min (Exp. 2, 3) after i.p. injection of 200 microliters DMSO (20 percent in saline) in control group; or forskolin (5 mM) prepared in DMSO (100 percent) and diluted to 1 mM with saline just before injection. The mice were sacrificed after 9 days (Exp. 1) or 14 days (Exp. 2, 3) and the lungs removed for examination. The tumor foci were counted with the help of a dissecting microscope.
The in vivo experimental procedure of Example II above was also repeated using a combination of forskolin and oxagrelate.

mice [4] = assay: overt toxicity observation in mice after i.p. administration; format: in vivo, mouse (C57BL/6); conditions: 82 micrograms/mouse
Method: as §1, with “microscope. […] FIG. 2 presents typical specimens of lungs from untreated and forskolin-treated mice of experiments 2 and 3.” for “microscope.”

[5] = tested on: membrane adenylate cyclase; conditions: human platelets, via stimulation of membrane adenylate cyclase; cited from earlier work
mice [6] = conditions: cited from earlier work
[7] = tested on: human platelet aggregation induced by B16-F10 melanoma cells; assay: B16-F10 melanoma cell-induced human platelet aggregation in vitro (light transmission in platelet-rich plasma); format: cell-based
Method: A mouse melanoma subline, B16-F10, (highly metastatic to the lungs) was obtained from EG & G Mason Research Institute, Worcester, MA, and adapted to growth in cell culture. The cultured cells were harvested by 1 min of trypsinization (0.25% trypsin-0.1% EDTA) or with the use of a rubber policeman, washed gently three times with Hank's balanced salts solution (HBBS, free of Ca^++ and Mg^++). […] Freshly drawn whole blood from healthy adult human donors was anticoagulated with heparin (5 units/ml). […] Platelet-rich plasma (PRP) was separated by centrifugation of the whole blood and platelet aggregation was measured in PRP by recording the increase in light transmission after the addition of the tumor cells.
Washed B16-F10 cell suspensions (2×10^7 /ml) were treated with potato apyrase (1 unit/ml) for about 5 min to degrade exogenous adenine nucleotides. Fifty microliters of the cell suspension was then added to the platelet-rich plasma after an incubation of 5 min with (A) 5 microliters DMSO (10% in saline) (Control) or (B) 5 microliters forskolin (200 micro Molars in DMSO 10% in saline). Final concentration of forskolin in PRP (500 microliters) was 2 micromolars.
The in vitro experimental procedure of Example I above was repeated using a combination of forskolin and oxagrelate. In this example the cell suspension was added to platelet-rich plasma incubated with a mixture of forskolin and oxagrelate.

platelet aggregation [8] = conditions: induced by a wide variety of aggregation stimulators; cited from earlier work

SMILES	decrease in pulmonary tumor foci ([1]; PGI2 50-200 micrograms/mouse (Honn))	pulmonary tumor colonization ([1]; PGI2, i.v. injection (Honn et al. 1981))	potency as inhibitor of pulmonary tumor metastasis, PGI2 versus forskolin [2]	potency in inhibiting platelet aggregation in vitro relative to forskolin (platelet aggregation [3])	Median number of pulmonary tumor foci (B16-F10 melanoma cells; Experiment 1, 2×10^5 cells/mouse, i.p. 60 min before, 9 days, control median 189)	Median number of pulmonary tumor foci (B16-F10 melanoma cells; Experiment 2, 3×10^5 cells/mouse, i.p. 30 min before, 14 days, control median 210)	Median number of pulmonary tumor foci (B16-F10 melanoma cells; Experiment 3, 3×10^5 cells/mouse, i.p. 30 min before, 14 days, control median >600 (estimated))	No. of pulmonary tumor foci (per mouse) (B16-F10 melanoma cells; Experiment 3, 3×10^5 cells/mouse, i.p. 30 min before, 14 days, mice about 5 weeks old, control >600 (estimated))	appearance of tumor foci (dissecting microscope) (B16-F10 melanoma cells; experiments 2 and 3, compared with untreated mice)	direct effect on melanoma cells (B16-F10 melanoma cells; forskolin i.p. prior to tail vein injection of cells)	overt signs of toxicity (mice [4])	increase of intracellular concentration of cyclic AMP [5]	LD 50 (mice [6]; i.p.) [mg/kg]	LD 50 (mice [6]; per OS)	inhibition at 0.4 µM ([7]; Homo sapiens, B16-F10, forskolin 0.4 micromolar alone, read-out: inhibition of tumor cell-induced platelet aggregation) [%]	melanoma cell-induced human platelet aggregation, inhibition ([7]; forskolin 2 micromolar, 5 min preincubation of PRP, B16-F10 2×10^6/ml)	in vitro inhibitory effect in combination with 2-fluoroadenosine ([7]; forskolin combined with 2-fluoroadenosine (F-Ado))	in vitro inhibitory effect in combination with prostaglandin E ([7]; forskolin combined with prostaglandin E)	inhibition of human platelet aggregation (platelet aggregation [8])	inhibition at 20 µM ([7]; Homo sapiens, B16-F10, oxagrelate 20 micromolar alone, read-out: inhibition of tumor cell-induced platelet aggregation) [%]
CCCCC[C@H](O)/C=C/[C@@H]1[C@H]2C/C(=C/CCCC(=O)O)O[C@H]2C[C@H]1O [PGI2, prostacyclin]	greater than 50%	reduces pulmonary tumor colonization	similar	several hundred-fold more potent	–	–	–	–	–	–	–	–	–	–	–	–	–	–	–	–
C=C[C@@]1(C)CC(=O)[C@]2(O)[C@@]3(C)[C@@H](O)CCC(C)(C)[C@@H]3[C@H](O)[C@H](OC(C)=O)[C@@]2(C)O1 [forskolin, 7 beta-acetoxy-8,13-epoxy-1 alpha,6 beta,9 alpha trihydroxy-labd-14-en-11-one]	–	–	similar	–	3.1	1	149.5	219,250,281	smaller and more superficial	without effecting the melanoma cells directly	No overt signs of toxicity	several-fold	105	3,100 mg/kg	20	strongly inhibits; also recorded: strongly blocked	potentiated	potentiated	blocks human platelet aggregation	–
CCOC(=O)c1c(C)cc2c(CO)nnc(O)c2c1C [oxagrelate]	–	–	–	–	–	–	–	–	–	–	–	–	–	–	–	–	–	–	–	20
